How the values were obtained:
NIH3T3 cells = assay: MTT cell viability, sensitivity to GCV killing, NIH3T3 cell lines expressing HSV-1 TKs; type: cell-based, murine; settings: NIH3T3, GCV 0-5 μM, 4 days, FIG. 3A
Method: Cells were plated in triplicate and exposed to 0, 0.05, 0.5 or 5 μM GCV for four days. Cell viabilities were determined using MTT dye. […] FIG. 3A: NIH3T3 cell lines, FIG. 3B: HCT-116 cell lines; parental cells (noTK, dark bands); Asp125TK (Asp-#, brick band); Glu-125TK (Glu-#, cross-hatch bands); Asn-125TK (Asn-#, gray bands); wild-type HSV-1 TK (WT-#, striped bands).
A Moloney murine leukemia virus derived plasmid for the expression of HSV-TK, termed pLENTK, has been previously constructed (24). A unique BspEI-MluI restriction fragment within the HSV-TK sequence of pLENTK contains the Gln-125 mutation site. This fragment was removed from wild-type plasmid and replaced with the analogous fragments encoding each mutant. […] Along with wild-type HSV-1 TK plasmid, each mutant-TK plasmid was transfected individually into the murine fibroblast cell line, NIH 3T3, and the human colon tumor cell line, HCT-116, using lipofectin reagent (GIBCO/BRL) (2 μg plasmid, 14 μl lipid per 1×10^6 cells). Cells were maintained in RPMI 1640 media and selected with G418 (200 μg/ml for 2 weeks) as previously described (24). At least eight individual G418 resistant cell clones were picked and grown up for further characterization. Each clone was screened initially for growth inhibition by 25 μM GCV. Those clones that were sensitive were further analyzed for HSV-TK protein expression by Western blot analysis with a polyclonal, rabbit anti-HSV-TK antibody (a gift from Dr. Margaret Black). […] After 4 days, MTT ([…]) was added for 1.5 hours, followed by DMSO solubilization of the cells and absorbance reading at 540 nm (25).
cDNA for each mutant was incorporated into a Moloney murine leukemia virus plasmid (24). […] Following drug selection in G418, individual cell clones were evaluated for sensitivity to GCV and relative levels of HSV-1 TK expression. Using an HSV-1 TK antibody and extracts normalized by protein and cell number, the relative expression levels of HSV-1 TK in each cell clone were determined.

HCT-116 cells = assay: Clonal dilution assay for GCV sensitivity; type: cell-based, human; settings: for Decrease in cell colony numbers: 24 hours, FIG. 4
Method: Parental HCT-116 (large square), wild-type HSV-1 TK cells (triangle), Asn-125TK cells (small square) and Glu-125TK cells (diamond) were treated with 0, 0.1, 1 or 10 μM GCV in triplicate for 24 hours. After this time, each well of cells was sequentially diluted from 1:10 to 1:10,000 in 1 ml of fresh media on a separate 24 well plate. After 7 days, surviving cell colonies were fixed in 100% methanol, stained with 0.1% methylene blue and counted.
For determination of GCV sensitivity, parental HCT-116 and each HSV-1 TK expressing cells were seeded in 24 well plates (2×10^5/well) in 1 ml of media. The next day, 0, 0.1, 1 or 10 μM GCV was added to each cell line in triplicate. After 24 hours, for each well the media was removed, cells were rinsed twice in fresh media, trypsinized, then media was added to 1 ml per well. Each well of cells was then sequentially diluted from 1:10 to 1:10,000 in 1 ml of fresh media on a separate 24 well plate. After 7 days, surviving cell colonies were fixed in 100% methanol, stained with 0.1% methylene blue and counted. For bystander effect assays, each of the three HSV-1 TK expressing cell lines were plated with parental HCT-116 cells (total 2×10^5/well) in the following proportions: (parental: HSV-1TK cells) 100%:0; 95%:5%; 90%:10%; 75%:25%; 50%:50% and 0:100%. After two days, 25 μM GCV was added in 1 ml fresh media. After 24 hrs, the media was removed and cells from each well were diluted from 1:10 to 1:10,000 as described above. After 7 days, surviving cell colonies were fixed and stained for counting.
Cells previously plated in 24 well plates were treated with GCV (0-10 μM) in triplicate for 24 hours. Following drug removal, cells were diluted and replated in fresh media from dilutions of 1:10 to 1:10,000. Surviving cell colonies were counted 6-7 days later.

| Substance | Dose dependent cell killing by GCV (cell viability, MTT) (NIH3T3 cells) | Decrease in cell colony numbers (HCT-116 cells; 0.1 μM GCV) | Decrease in cell colony numbers (HCT-116 cells; 10 μM GCV) | Decrease in cell colony numbers (HCT-116 cells; 1 μM GCV) | Reduction in cell colony numbers (HCT-116 cells; 20-110 μM GCV (data not shown)) |
| --- | --- | --- | --- | --- | --- |
| Asn-125 | proportionally more cell killing | 2 log | 4 log | – | – |
| Gln-125 (WT): wild-type herpes simplex virus type 1 thymidine kinase with glutamine at position 125, parent enzyme [reference compound] | proportionally more cell killing | 2 log | 4 log | – | – |
| Glu-125 | minimal cell killing | no reduction | 2.5 log | 0.7 log | over 3 log |
